Read-outs that look alike come from different tables or passages of the source.
Test system: Aedes aegypti
Test: Warm Body assay, mosquito landings on treated warm body
Format: in vivo
Details: for pest or weed control at 0.04 %: intermediate concentration of 0.04% (Table 3); for pest or weed control at 0.04 % / pest or weed control at 1 %: read-out: repellence; for pest or weed control at 0.0016 %: lowest concentration of 0.0016% (Table 3), read-out: reduce the number of mosquito landings
Method: The arthropod controlling effect according to the present invention is determined on mosquitoes using an adapted Warm Body assay as defined in Kröber T, Kessler S, Frei J, Bourquin M, Guerin PM. An in vitro assay for testing mosquito controlling compounds employing a warm body and carbon dioxide as a behavioral activator. J Am Mosq Control Assoc. 2010; 26: 381-386. Further information is provided in the accompanying examples
The controlling effect, repellence & spatial repellence, according to the present invention is determined by testing the Warm Body assay against the yellow fever mosquito, Aedes aegypti Rockefeller strain. […] Observations of controlling efficacy were made on host-seeking females of uniform age, 5 to 10 days old selected as mentioned in the publication mentioned hereinabove. Tested hungry females had access to 10% sugar solution but were not blood-fed. Further information is provided in the accompanying examples.
The published protocol has been adapted in not manually counting the landing mosquitoes but automatically using an automatic counting software, the switch from Anopheles gambiae to A. aegypti led to a decrease of mosquitoes' number placed in the tested cage due to the size difference (i.e. 30 mosquitoes instead of 50) and to an increase of lighting as A. aegypti is a diurnal mosquitoes (i.e. 150 lux instead of 4 lux). Further information is provided in the accompanying examples. […]
The controlling effect according to the present invention was assessed using an adapted Warm Body assay as defined in Kröber T, Kessler S, Frei J, Bourquin M, Guerin P M. 2010. J Am Mosq Control Assoc. 26: 381-386. In this in-vitro assay the number of mosquito landing on a warm body, simulating an attractive host treated with the tested stimuli, was measured in order to assess the repellence effect.
The published protocol has been adapted as the switch from Anopheles gambiae to Aedes aegypti led to a decrease of mosquitoes placed in the tested cage due to the size difference (i.e. 30 mosquitoes instead of 50) and to an increase of lighting since A. aegypti is a diurnal mosquitoes (i.e. 150 lux instead of 4 lux).
On the sandblasted glass Petri dish covering the warm body (28.3 cm^2), 100 μL of the compounds diluted at different concentrations in ethanol was applied. The number of mosquito landing on the warm body was counted for each stimulus and pure ethanol (solvent) as control.

[1] = Aedes aegypti, 0.016 mg/mL (Table 3), read-out: Percentage of repellence of mosquitoes Aedes aegypti landing on the warm body
[2] = Aedes aegypti, 0.4 mg/mL (Table 3), read-out: Percentage of repellence of mosquitoes Aedes aegypti landing on the warm body
[3] = Aedes aegypti, 10 mg/mL (Table 3), read-out: Percentage of repellence of mosquitoes Aedes aegypti landing on the warm body
[4] = Aedes aegypti, highest tested concentration, 1% (Table 3)

## COc1cc(CC=O)ccc1O [compound 1467, 2-(4-hydroxy-3-methoxyphenyl)acetaldehyde]
[1]
  pest or weed control at 16 µg/mL: 29%
[2]
  pest or weed control at 400 µg/mL: 84%
[3]
  pest or weed control at 10000 µg/mL: 79%
Aedes aegypti
  pest or weed control at 0.04 %: > 75%

## CCOc1cc(C=O)ccc1OC(=O)C(C)C [compound 1469, (2-ethoxy-4-formylphenyl) 2-methylpropanoate]
[1]
  pest or weed control at 16 µg/mL: 64%
[2]
  pest or weed control at 400 µg/mL: 65%
[3]
  pest or weed control at 10000 µg/mL: 95%
[4]
  pest or weed control at 1 %: > 90%
Aedes aegypti
  pest or weed control at 0.0016 %: > 50%

## COc1cc(C2CC=C(C)CO2)ccc1O (centres unmarked) [compound 1478, 2-methoxy-4-(5-methyl-3,6-dihydro-2H-pyran-2-yl)phenol]
[1]
  pest or weed control at 16 µg/mL: 0%
[2]
  pest or weed control at 400 µg/mL: 76%
[3]
  pest or weed control at 10000 µg/mL: 73%
Aedes aegypti
  pest or weed control at 0.04 %: > 75%

## COc1cc(C(C)OC)ccc1O (centres unmarked) [compound 1480, 2-methoxy-4-(1-methoxyethyl)phenol]
[1]
  pest or weed control at 16 µg/mL: 66%
[2]
  pest or weed control at 400 µg/mL: 61%
[3]
  pest or weed control at 10000 µg/mL: 100%
[4]
  pest or weed control at 1 %: > 90%
Aedes aegypti
  pest or weed control at 0.0016 %: > 50%
Highest tested concentration, 1% (Table 3)
  mosquito landing within the two minutes of experiments: protect the attractive stimulus for any mosquito landing

## COc1cc(C2CCCO2)ccc1O (centres unmarked) [compound 1481, 2-methoxy-4-(oxolan-2-yl)phenol]
[1]
  pest or weed control at 16 µg/mL: 21%
[2]
  pest or weed control at 400 µg/mL: 89%
[3]
  pest or weed control at 10000 µg/mL: 97%
[4]
  pest or weed control at 1 %: > 90%
Aedes aegypti
  pest or weed control at 0.04 %: > 75%

## CCCc1cc(OC)c(O)c(OC)c1 [compound 1502, 2,6-dimethoxy-4-propylphenol]
Aedes aegypti, 0.0032 mg/mL (Table 1), read-out: Percentage of repellence of mosquitoes Aedes aegypti landing on the warm body
  pest or weed control at 3.2 µg/mL: 0%
Aedes aegypti, 0.0071 mg/mL (Table 1), read-out: Percentage of repellence of mosquitoes Aedes aegypti landing on the warm body
  pest or weed control at 7.1 µg/mL: 0%
Aedes aegypti, 0.016 mg/mL (Table 1), read-out: Percentage of repellence of mosquitoes Aedes aegypti landing on the warm body
  pest or weed control at 16 µg/mL: 32%
Aedes aegypti, 0.0357 mg/mL (Table 1), read-out: Percentage of repellence of mosquitoes Aedes aegypti landing on the warm body
  pest or weed control at 35.7 µg/mL: 0%
Aedes aegypti, 0.053 mg/mL (Table 1), read-out: Percentage of repellence of mosquitoes Aedes aegypti landing on the warm body
  pest or weed control at 53 µg/mL: 61%
Aedes aegypti, 0.08 mg/mL (Table 1), read-out: Percentage of repellence of mosquitoes Aedes aegypti landing on the warm body
  pest or weed control at 80 µg/mL: 0%
Aedes aegypti, 0.119 mg/mL (Table 1), read-out: Percentage of repellence of mosquitoes Aedes aegypti landing on the warm body
  pest or weed control at 119 µg/mL: 14%
Aedes aegypti, 0.178 mg/mL (Table 1), read-out: Percentage of repellence of mosquitoes Aedes aegypti landing on the warm body
  pest or weed control at 178 µg/mL: 94%
Aedes aegypti, 0.267 mg/mL (Table 1), read-out: Percentage of repellence of mosquitoes Aedes aegypti landing on the warm body
  pest or weed control at 267 µg/mL: 94%
Aedes aegypti, 0.4 mg/mL (Table 1), read-out: Percentage of repellence of mosquitoes Aedes aegypti landing on the warm body
  pest or weed control at 400 µg/mL: 88%
Aedes aegypti, 0.598 mg/mL (Table 1), read-out: Percentage of repellence of mosquitoes Aedes aegypti landing on the warm body
  pest or weed control at 598 µg/mL: 94%
Aedes aegypti, 0.89 mg/mL (Table 1), read-out: Percentage of repellence of mosquitoes Aedes aegypti landing on the warm body
  pest or weed control at 890 µg/mL: 99%
Aedes aegypti, 2 mg/mL (Table 1), read-out: Percentage of repellence of mosquitoes Aedes aegypti landing on the warm body
  pest or weed control at 2000 µg/mL: 96%
Aedes aegypti, 4.47 mg/mL (Table 1), read-out: Percentage of repellence of mosquitoes Aedes aegypti landing on the warm body
  pest or weed control at 4470 µg/mL: 100%
Aedes aegypti, 10 mg/mL (Table 1), read-out: Percentage of repellence of mosquitoes Aedes aegypti landing on the warm body
  pest or weed control at 10000 µg/mL: 96%

## C=CC(C)CCCC(C)(C)OCC=Cc1ccc(O)c(OC)c1 (centres unmarked) [compound 1519, 4-{3-[(2,6-dimethyl-7-octen-2-yl)oxy]-1-propen-1-yl}-2-methoxyphenol]
[1]
  pest or weed control at 16 µg/mL: 67%
[2]
  pest or weed control at 400 µg/mL: 71%
[3]
  pest or weed control at 10000 µg/mL: 95%
[4]
  pest or weed control at 1 %: > 90%
Aedes aegypti
  pest or weed control at 0.0016 %: > 50%

## COc1cc(C=CC=O)ccc1O [compound 1527, 3-(4-hydroxy-3-methoxyphenyl)pro-2-enal]
0.016 mg/mL (Table 3)
  Percentage of repellence of mosquitoes Aedes aegypti landing on the warm body: 69%
0.4 mg/mL (Table 3)
  Percentage of repellence of mosquitoes Aedes aegypti landing on the warm body: 76%
10 mg/mL (Table 3)
  Percentage of repellence of mosquitoes Aedes aegypti landing on the warm body: 71%
